Experimental data: publication PMC11429243, “The Fluorinated NAD Precursors Enhance FK866 Cytotoxicity by Activating SARM1 in Glioblastoma Cells” (Biology, 2024)

Assays:
[1] = target: T1, NRK1 (Homo sapiens, UniProt Q9NWW6); test: HPLC of conversion of NR to NMN by purified enzyme; type: biochemical
T1 construct: gene NMRK1; recombinant human NRK1 (CDS of NM_017881.3) in pET22b, E. coli Rosetta (DE3)
T1 sequence (Q9NWW6 1-199): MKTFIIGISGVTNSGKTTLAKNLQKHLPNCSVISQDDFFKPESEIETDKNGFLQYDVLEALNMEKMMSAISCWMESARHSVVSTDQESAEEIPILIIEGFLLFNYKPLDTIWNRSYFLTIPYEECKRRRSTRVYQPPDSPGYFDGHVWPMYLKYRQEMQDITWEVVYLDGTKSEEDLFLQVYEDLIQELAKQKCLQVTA

[2] = target: T2, NRK2 (Homo sapiens, UniProt Q9NPI5); test: HPLC of conversion of NR to NMN by purified enzyme; type: biochemical
T2 construct: gene NMRK2; recombinant human NRK2 (CDS of NM_170678.2) in pET22b, E. coli Rosetta (DE3)
T2 sequence (Q9NPI5 whole entry): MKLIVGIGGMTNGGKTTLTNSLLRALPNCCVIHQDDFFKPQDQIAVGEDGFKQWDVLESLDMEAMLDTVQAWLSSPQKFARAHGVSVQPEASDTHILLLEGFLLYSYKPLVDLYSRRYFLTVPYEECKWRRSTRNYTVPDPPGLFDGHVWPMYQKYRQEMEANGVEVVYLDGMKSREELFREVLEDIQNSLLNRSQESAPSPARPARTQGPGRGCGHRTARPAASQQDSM

HPLC of conversion of NR to NMN by purified enzyme [1]: 12.03 pmol NR/µg/h | HPLC of conversion of NR to NMN by purified enzyme [2]: 17.28 pmol NR/µg/h
SMILES: NC(=O)c1ccc[n+]([C@@H]2O[C@H](CO)[C@@H](O)[C@H]2O)c1 [NR, nicotinamide riboside]
